In assay [1] the test system is OCI-Ly10. The assay can be described thus: Inhibition of DLBCL cancer cell proliferation (CellTiter-Glo), Compound A and Compound B mono and combination. The class given is cell-based, human. The following applies: monotherapy, highest concentration tested, 4 days. The procedure: (§1) Compound A and Compound B were used throughout the in vitro and cellular assessment of activity. All small molecules were prepared as 100% dimethyl sulfoxide (DMSO) stocks as indicated. A final concentration of 0.25% DMSO was used as a control. High Control=Cells+DMSO 0.25%.
(§2) A panel of 4 B-cell lymphoma lines was treated with different doses of both compounds. The following ABC-DLBCL cell lines were tested: OCI-Ly10; TMD8; OCI-Ly3; and HBL1. The cell lines were grown in 96-well plates and treated with a matrix of seven scalar concentrations of Compound A ([…]) and six scalar concentrations of Compound B ([…]) and all combinations thereof. This checkerboard design was repeated on up to four separate plates. The final concentration of DMSO was 0.25%. After an incubation of four days at 37° C. and 5% CO2, cell viability was determined by adding CellTiter-Glo®. Luminescence was read on an Envision device and readouts were used to calculate potential combination effects.
For the assessment of combination effects on DLBCL or MCL cancer cell proliferation, the observed combination effects were evaluated using the public available BIGL (Biochemically Intuitive Generalized Loewe Model) R package which measures the evidence in the data, in the presence of variability, against certain null models derived from the monotherapies. […]
(In ATP-based viability assays light output follows the ATP content of the culture.)

A further assay has as its system OCI-Ly3. The description is as above. The class given is cell-based. The conditions noted are these: monotherapy, highest concentration tested, 4 days. The procedure: as §1, §2
(§3) For the assessment of combination effects on DLBCL or MCL cancer cell proliferation, the observed combination effects were evaluated using the public available BIGL (Biochemically Intuitive Generalized Loewe Model) R package which measures the evidence in the data, in the presence of variability, against certain null models derived from the monotherapies. In first step, monotherapies were fitted with 4PL models with extra constraint of common baseline between two agents. When no activity was observed, a straight line was fitted through the monotherapy data. In a second step, hypothesis tests at 5% significance level were performed which basically contrast the observed readouts of the combination experiments with those predicted from the null model derived from the monotherapies where both HSA (Highest Single Agent) 17 and generalized Loewe18 were assessed for these studies.

The subject of another assay is TMD8. The description is as above. The class given is cell-based. The conditions noted are these: monotherapy, highest concentration tested, 4 days. The procedure: as §1, §2, §3
In another assay the test system is JEKO-1. The assay can be described thus: Inhibition of MCL cancer cell proliferation (CellTiter-Glo), Compound A and Compound B mono and combination. The class given is cell-based. The following applies: monotherapy, 4 days. The protocol: as §1, §2
(§4) A panel of 4 MCL cell lines were treated with different doses for both compounds (using the same dosing as above). The following MCL cell lines were tested: REC-1; JEKO-1; MINO; and MAVER-1.
as §3

The test system of a further assay is MAVER-1. The assay is described as above. The conditions noted are these: monotherapy, 4 days. Type of assay: cell-based. The protocol:
as §1, §2, §4, §3

The subject of the next assay is MINO. The assay is described as above. The class given is cell-based. The following applies: monotherapy, 4 days. The procedure: as §1, §2, §4, §3
In assay [2] the test system is OCI-Ly10. The assay can be described thus: Proliferation of ABC-DLBCL cell lines (IC50). Type of assay: cell-based. The following applies: Homo sapiens, OCI-Ly10; read-out: IC50, inhibition of proliferation.
The target of the next assay is T1, BTK protein (Homo sapiens, UniProt Q06187).
T1 construct: measuring the amount of free BTK protein in OCI-LY10 DLBCL tumor lysates of mice treated with various dosing concentrations of Compound B; endogenous in cells; host or cells: OCI-LY10 ABC-DLBCL xenograft tumours grown SC in female NSG mice (tumour lysates)
The assay can be described thus: Study 1: BTK occupancy assay (ELISA) in OCI-LY10 DLBCL tumor lysates of NSG mice. Type of assay: in vivo, mouse. The procedure:
In Study 1, 5×10^6 OCI-LY10 cells in PBS containing 50% Matrigel™ were injected subcutaneously (SC) into the right hind flank of female NSG mice. Tumor growth was measured over time and once tumors reached volumes of approximately 525 mm^3, mice were randomized in groups of 15 and treated orally with a single dose of Compound B according to treatment schedule (see Table 4). Blood was collected serially by mandibular vein sampling from 5 animals per time point per group to determine circulating compound concentration and IL10 levels at 2, 4, 8, 12, 16, and 24 hours post single dose. Blood was harvested in EDTA and plasma was obtained via centrifugation at 3000 rpm for 10 minutes. In addition, tumor samples were harvested from 5 animals per timepoint per treatment group for BTK occupancy studies at 4, 12, and 24 hours post single dose.
Compound B is a covalent orally bioavailable inhibitor binding BTK irreversibly, allowing us to evaluate the duration of signaling shutdown and occupancy of BTK protein after compound administration considering compound binding to BTK as well as synthesis rate of new BTK protein. Target engagement was determined by measuring the amount of free BTK protein in OCI-LY10 DLBCL tumor lysates of mice treated with various dosing concentrations of Compound B using a BTK occupancy assay (ELISA assay format). A covalent BTK inhibitor probe, chemically linked to biotin (CNX-500 Probe), was incubated in PBS/BT (PBS+1% BSA+0.05% tween-20) with tumor lysate for 1 hour at 28° C. Incubated BTK standards and samples were transferred to a streptavidin-coated 96-well plates and mixed while shaking for 30 minutes at RT. The BTK-antibody was then added and incubated overnight at 4° C. After washing, goat anti-mouse-HRP was added and incubated for 1 hour at RT. The ELISA was developed with addition of tetramethyl benzidine (TMB) followed by sulfuric acid (stop solution) and read at optical density 450 nm on Envision device.
(ELISA stands for enzyme-linked immunosorbent assay.)

A further assay concerns NHL and CLL. The assay can be described thus: Clinical trial of Compound B monotherapy in the same patient population. The class given is in vivo, human. The protocol:
Another clinical trial is being conducted in the same patient population, in which Compound B is administered as a monotherapy. […] Two patients (1 MCL, 1 CLL) achieved PR soon after dose escalation to 280 mg BID at Cycles 7 and 9, respectively. […] Therefore, the response seen in CLL/SLL patients in the combinational study is unlikely to attribute to either Compound A or Compound B alone.

T1 sequence (Q06187 whole entry): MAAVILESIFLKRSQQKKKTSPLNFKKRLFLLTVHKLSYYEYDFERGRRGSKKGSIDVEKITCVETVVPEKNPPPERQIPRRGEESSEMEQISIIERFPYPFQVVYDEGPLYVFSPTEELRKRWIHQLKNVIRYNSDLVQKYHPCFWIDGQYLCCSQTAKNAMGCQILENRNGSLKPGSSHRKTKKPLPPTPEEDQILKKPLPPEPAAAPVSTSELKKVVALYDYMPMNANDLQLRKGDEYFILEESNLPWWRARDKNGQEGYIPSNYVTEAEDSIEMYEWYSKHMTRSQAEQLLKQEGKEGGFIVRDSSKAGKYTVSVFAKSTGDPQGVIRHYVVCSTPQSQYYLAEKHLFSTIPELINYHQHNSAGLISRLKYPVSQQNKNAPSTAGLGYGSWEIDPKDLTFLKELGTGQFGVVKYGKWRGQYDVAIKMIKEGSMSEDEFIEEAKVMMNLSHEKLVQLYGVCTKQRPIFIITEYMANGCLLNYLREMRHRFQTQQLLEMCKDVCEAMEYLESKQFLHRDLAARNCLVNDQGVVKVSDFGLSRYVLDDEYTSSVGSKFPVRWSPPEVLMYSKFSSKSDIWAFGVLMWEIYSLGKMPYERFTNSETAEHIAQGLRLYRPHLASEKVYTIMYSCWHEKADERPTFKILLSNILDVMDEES

Consider `C=CC(=O)N[C@H]1CCC[C@H]1NC(=O)c1sc2nccc3c2c1NC(=O)N3c1cnc(CC(C)C)cc1C` (atropisomer, axis not shown) [Compound B, N-((1R,2S)-2-acrylamidocyclopentyl)-5-(S)-(6-isobutyl-4-methylpyridin-3-yl)-4-oxo-4,5-dihydro-3H-1-thia-3,5,8-triazaacenaphthylene-2-carboxamide], for which the proliferation inhibition result in the assay on OCI-Ly10 [1] is reported as “up to 75%”; with OCI-Ly3, “did not inhibit proliferation”; with TMD8, “up to 80%”; in the assay with JEKO-1, approximately 25%; in the assay on MAVER-1 it was “no to minor inhibition of proliferation”; with MINO it was approximately 30%. The IC50 in the assay with OCI-Ly10 [2] came out at 18 nM. Besides, the “BTK occupancy in tumor lysates” value on BTK protein (1 mg/kg single dose) and on BTK protein (3 mg/kg single dose) was “No BTK occupancy” in each case. The “decrease in unoccupied (free) BTK in tumors” value on BTK protein (Compound B at 1, 3, 10, 30, or 100 mg/kg single dose, maximal at ≥ 30 mg/kg, sustained through 24 hours) is given as “Dose-and time-dependent”. The receptor occupancy at 10 mg/kg at BTK protein (OCI-Ly10, 4 hours after dosing) was determined as 54%; at BTK protein (OCI-Ly10, 12 hours), 71%; on BTK protein (OCI-Ly10, 24 hours) it was 70%. Moreover, the receptor occupancy at 30 mg/kg at BTK protein (OCI-Ly10, 4 hours after dosing) worked out at 90%; at BTK protein (OCI-Ly10, 12 hours), 94%; on BTK protein (OCI-Ly10, 24 hours), 91%. Besides, the receptor occupancy at 100 mg/kg at BTK protein (OCI-Ly10, 4 hours after dosing) turned out to be 95%; on BTK protein (OCI-Ly10, 12 hours), 96%; at BTK protein (OCI-Ly10, 24 hours) it was 85%. The “BTK occupancy in tumors” value at BTK protein (single dose as low as 30 mg/kg, effects lasting up to 24 hours) is “complete BTK occupancy”. The “patients with PR or CR” value in the assay on NHL and CLL (Compound B monotherapy 140 mg QD and 140 mg BID, 7 treated patients) is listed as “none of the 7 treated patients had PR or CR”. Further, in the assay on NHL and CLL (Compound B monotherapy after dose escalation to 280 mg BID, Cycles 7 and 9 (1 MCL, 1 CLL)), the “patients achieving PR” value is recorded as “Two patients”.
